Source: US20230181484A1, “Uses and Formulations of Cannabinoids” (priority 2020, published 2023)
Like-named read-outs stand apart in the source and are kept apart here.

What was measured:
IL-6 receptor = molecular target: T1, IL-6 receptor (Homo sapiens, UniProt P08887); conditions: patients with severe SARS-CoV-2 pneumonia, preliminary clinical data; cited from earlier work
T1 construct: host or cells: patients (in vivo)
T1 sequence (P08887 20-468): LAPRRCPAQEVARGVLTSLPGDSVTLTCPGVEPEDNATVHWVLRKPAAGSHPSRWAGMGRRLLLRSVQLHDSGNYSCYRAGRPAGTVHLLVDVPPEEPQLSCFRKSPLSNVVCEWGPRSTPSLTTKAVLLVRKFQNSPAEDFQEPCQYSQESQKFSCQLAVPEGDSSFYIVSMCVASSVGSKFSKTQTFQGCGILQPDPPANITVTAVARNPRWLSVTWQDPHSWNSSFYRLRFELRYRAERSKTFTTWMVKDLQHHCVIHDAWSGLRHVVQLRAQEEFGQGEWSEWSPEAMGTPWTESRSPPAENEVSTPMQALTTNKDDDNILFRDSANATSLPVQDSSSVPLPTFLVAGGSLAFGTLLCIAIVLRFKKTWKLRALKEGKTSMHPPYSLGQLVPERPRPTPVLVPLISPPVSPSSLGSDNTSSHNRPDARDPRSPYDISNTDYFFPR

[1] = decimal logarithm of n-octanol/water partition coefficient; cited from earlier work
[2] = tested on: chemically induced acute hepatitis; conditions: mice, 25 mg/kg; cited from earlier work
[3] = systemic exposure after i.p. and oral application of CBD in mice (Deiana et al. 2012); type: in vivo; conditions: 20 mg/kg, assuming dose-proportional plasma concentrations
Procedure: A comparative investigation for systemic exposure after i.p. and oral application of CBD in mice and rats has shown that 120 mg/kg as a single dose leads to a maximum plasma concentration of 14,000 ng/ml in mice (S. Deiana et al. (2012). Plasma and brain pharmacokinetic profile of cannabidiol (CBD), cannabidivarine (CBDV), Delta(9)-tetrahydrocannabivarin (THCV) and cannabigerol (CBG) in rats and mice following oral and intraperitoneal administration and CBD action on obsessive-compulsive behaviour. Psychopharmacology (Bed) 219(3): 859-73).

IL-6 secretion = conditions: cellular models, majority of cases; cited from earlier work
[4] = tested on: LPS-induced acute lung injury; conditions: cited from earlier work
human mononuclear cells = conditions: nanomolar or micromolar concentrations; cited from earlier work
[5] = tested on: activated memory T cell line; conditions: 1-5 μmol/l, cited from earlier work
[6] = tested on: LPS-induced acute lung injury; conditions: mice, 20 mg/kg, 6 h after LPS; cited from earlier work
human neutrophils = conditions: cited from earlier work
[7] = mice, 120 mg/kg single dose; cited from earlier work
CD83 = conditions: cited from earlier work
NK, NKT, T and B cells = conditions: healthy rats, cited from earlier work
microglial cells = conditions: 1-16 μmol/l; cited from earlier work
[8] = tested on: ischemia-reperfusion-induced kidney injury; conditions: mice, 10 mg/kg after induced kidney injury; cited from earlier work
[9] = mice, 0.3-80 mg/kg i.p. 60 min before LPS

tocilizumab: humanized monoclonal antibody against the IL-6 receptor
clinical effect of IL-6 blockade therapy (IL-6 receptor): beneficial effects

C=C(C)[C@@H]1CCC(C)=C[C@H]1c1c(O)cc(CCCCC)cc1O [CBD, 2-[(1R,6R)-3-methyl-6-(1-methylethenyl)-2-cyclohexen-1-yl]-5-pentyl-1,3-benzenediol]
log P [1]: about 6.1 | expression of MDSCs [2]: induces | pro-inflammatory cytokines such as IL-2, TNF-α and IL-6 [2]: reduction | target peak exposure [3]: 2,300 ng/ml | effective concentration, suppressive effect on IL-6 secretion (IL-6 secretion): ~5 µM | number of leukocytes including macrophages and neutrophils in bronchoalveolar lavage fluid ([4]; mice, 20 mg/kg, after LPS-induced lung inflammation): decreases | myeloperoxidase activity [4, 9]: significantly decreased | pro-inflammatory cytokine production including TNF-α and IL-6 [4, 9]: significantly decreased | total leukocytes migration [4, 9]: significantly decreased | vascular permeability [4, 9]: significantly decreased | dose at which effects reached a nearly maximum extent ([4]; prophylactic application, i.p.): 20 mg/kg | release of pro-inflammatory cytokines (human mononuclear cells): suppressed | IL-6 production and secretion [5]: decreased | production of IL-10 [5]: increased | autoantigen-specific Th17 cell phenotype (IL-17) ([5]; dose-dependently): reduced | leukocyte migration (neutrophil, macrophages and lymphocytes) into the lungs [6]: decreased | mechanical lung function [6]: improved | myeloperoxidase activity in the lung tissue [6]: decreased | production of proinflammatory cytokines/chemokines [6]: reduced | vascular permeability [6]: reduced | migration of human neutrophils (human neutrophils): inhibits | maximum plasma concentration [7]: 14,000 ng/ml | CD83 dendritic cell activation marker (CD83; dendritic cells derived from healthy individuals): not | CD83 dendritic cell activation marker (CD83; dendritic cells derived from individuals with HIV infection): suppresses | numbers of NK cells and NKT cells (NK, NKT, T and B cells; 2.5 mg/kg per day): increased | numbers of NK cells and NKT cells (NK, NKT, T and B cells; 5 mg/kg per day): not affected | number of T cells including T helper cells and cytotoxic T cells and of B cells (NK, NKT, T and B cells; daily 5 mg/kg): significantly reduced | apoptosis in microglial cells (microglial cells): induces apoptosis | decreased Treg17 and increased Th17 levels [8]: reversed | effect on induced kidney injury [8]: renoprotective
